Laboratory results: US12466784B2, “Analogs of pterostilbene amino acid bearing carbonates for treating a non-alcoholic fatty liver disease and nonalcoholic steatohepatitis” (APICAL MOLECULAR BIOTECH CO., LTD., priority 2020, dated 2025)
Values joined by “and” are separate entries in the source; they are usually repeats but may differ in a detail not shown here. Equal entries are not always repeated.

Legend:
[1] = system: hepatic steatosis induced by MCD diet; assay: Histological examination (H&E stain) of liver of MCD diet mice; format: in vivo, Male C57BL/6 mice; settings: for effect on MCD diet-induced steatohepatitis (H&E staining), in words / Steatosis / Ballooning / Fibrosis / Inflammation / Scores: MCD diet mice; for effect on MCD diet-induced steatohepatitis (H&E staining), in words / Avg / Ballooning / Fibrosis / Inflammation / Sum / Scores: 100 mg/kg oral; for Avg: average of Scores of the group; for Avg / Ballooning / Fibrosis / Inflammation / Sum / Scores: PG/TPSG (1:1); for Steatosis / Ballooning / Fibrosis / Inflammation: score per animal; for Steatosis: 100 mg/kg oral once daily, 5 times a week, in PG/TPSG (1:1); for Sum: sum of Scores of the 4 animals of the group; for Scores: total score per animal
Description: (§1) Animals and experimental protocol: Male C57BL/6 mice, 4 weeks of age, were purchased from Laboratory Animal Center (Taiwan, China) were maintained under the procedures and guidelines provided by the Institutional Animal Care and Use Committee of the Health Research Institutes (Taiwan, China). They were maintained with free access to pellet food and water in stainless-steel cages at a temperature of 21±2° C. with a 12 h light/dark cycle.
(§2) Mice were randomly divided into five groups and treated as follows: (1) MCD diet+PG/TPSG (2) MCD diet+100 mg/kg all compounds. After 28 days, animals were sacrificed for the collection of blood for determination of plasma ALT and AST concentrations, and liver samples for H&E stain.
(§3) After 28 days, animals were sacrificed for the collection of blood for determination of plasma ALT and AST concentrations, and liver samples for H&E stain.

MCD diet NASH mice = assay: Serum AST and ALT of compounds treated-NASH mice (MCD diet); format: in vivo, Male C57BL/6 mice; settings: MCD diet mice; for effect on serum concentrations of AST and ALT, in words: 100 mg/kg oral (Table 2); for Serum ALT (U/L) / Serum AST (U/L): 100 mg/kg oral, PG/TPSG (1:1)
Description: as §1, §2, §3

[2] = In vitro stability in pH 1.2 solution (USP Gastric fluid without enzymes); settings: 37° C.
Description: Sample collection: At 0, 0.17, 0.5, 1, 2, 4 and 6 h, 100 mL of aliquots were taken from the incubation mixture and placed into centrifuge tubes containing 100 μL of ice-cold acetonitrile and 1 μm internal standard where the reaction was terminated.

SMILES | effect on MCD diet-induced steatohepatitis (H&E staining), in words [1] | Avg [1] | Steatosis [1] | Ballooning [1] | Fibrosis [1] | Inflammation ([1]; hydrochloride, 100 mg/kg) | Sum [1] | Scores ([1]; hydrochloride, 100 mg/kg) | effect on serum concentrations of AST and ALT, in words (MCD diet NASH mice) | Serum ALT (U/L) (MCD diet NASH mice) | Serum AST (U/L) (MCD diet NASH mice) | compound remaining in pH = 1.2 solution (%) ([2]; Time 0 h) | compound remaining in pH = 1.2 solution (%) ([2]; Time 0.167 h) | compound remaining in pH = 1.2 solution (%) ([2]; Time 0.5 h) | compound remaining in pH = 1.2 solution (%) ([2]; Time 1 h) | compound remaining in pH = 1.2 solution (%) ([2]; Time 2 h) | compound remaining in pH = 1.2 solution (%) ([2]; Time 4 h) | Steatosis ([1]; hydrochloride, 100 mg/kg) | other results
COc1cc(/C=C/c2ccc(OC(=O)OCCNC(=O)CN)cc2)cc(OC)c1.Cl [Compound 5a, (E)-2-(2-aminoacetamido)ethyl (4-(3,5-dimethoxystyryl)phenyl) carbonate hydrochloride] | prevented MCD diet-induced steatohepatitis | 7.75 | 3 | 2 | 0 | 3 (3×) and 2 | 31 | 8 (3×) and 7 | significantly inhibited the serum concentrations of AST and ALT | 251.75 U/L | 283.00 U/L | 100.0% | 104.6% | 104.0% | 110.2% | 101.7% | 103.5% |  | 
COc1cc(/C=C/c2ccc(OC(=O)OCCNC(=O)C(N)Cc3ncc[nH]3)cc2)cc(OC)c1.Cl.Cl (centres unmarked) [Compound 5m, (E)-2-(2-amino-3-(1H-imidazol-2-yl)propanamido)ethyl (4-(3,5-dimethoxy styryl)phenyl) carbonate dihydrochloride] | prevented MCD diet-induced steatohepatitis | 7.25 |  | 2 | 0 |  | 29 |  | significantly inhibited the serum concentrations of AST and ALT | 190.88 U/L | 381.75 U/L | 100.0% | 88.6% | 109.8% | 113.5% | 102.6% | 85.6% |  | Steatosis ([1]; dihydrochloride, 100 mg/kg): 2 (2×) and 3 (2×); Inflammation ([1]; dihydrochloride, 100 mg/kg): 3 (3×) and 2; Scores ([1]; dihydrochloride, 100 mg/kg): 7 and 8 (2×) and 6
COc1cc(/C=C/c2ccc(OC(=O)OCCNC(=O)CN)cc2)cc(OC)c1.O=C(O)c1cccnc1 [Compound 5v, (E)-2-(2-aminoacetamido)ethyl (4-(3,5-dimethoxystyryl)phenyl) carbonate nicotinate] |  | 8.00 | 3 | 2 | 0 |  | 32 |  |  | 430.13 U/L | 610.25 U/L | 100.0% | 100.6% | 106.8% | 101.0% | 103.0% | 106.9% |  | Inflammation [1]: 3; Scores [1]: 8; compound remaining in pH = 1.2 solution (%) ([2]; Time 6 h): 84.8%
COc1cc(/C=C/c2ccc(OC(=O)OCCNC(=O)C(N)C(C)C)cc2)cc(OC)c1.O=C(O)c1cccnc1 (centres unmarked) [Compound 5w, (E)-2-(2-amino-3-methylbutanamido)ethyl (4-(3,5-dimethoxystyryl)phenyl) carbonate nicotinate] | prevented MCD diet-induced steatohepatitis | 7.50 |  | 2 | 0 |  | 30 |  |  | 214.50 U/L | 236.75 U/L | 100.0% | 128.3% | 113.4% | 123.9% | 128.5% | 122.4% |  | Steatosis ([1]; 100 mg/kg): 3 (3×) and 2; Inflammation ([1]; 100 mg/kg): 2 and 3 (3×); Scores ([1]; 100 mg/kg): 7 (2×) and 8 (2×)
Cl.[2H]C([2H])([2H])Oc1cc(/C=C/c2ccc(OC(=O)OCCNC(=O)CN)cc2)cc(OC([2H])([2H])[2H])c1 [Compound 6a, (E)-2-(2-aminoacetamido)ethyl (4-(3,5-bis(methoxy-d3)styryl-d6)phenyl) carbonate hydrochloride] | prevented MCD diet-induced steatohepatitis | 7.00 |  | 2 | 0 | 3 (2×) and 2 (2×) | 28 | 8 and 7 (2×) and 6 |  | 402.63 U/L | 555.25 U/L | 100.0% | 106.4% | 101.2% | 119.4% | 101.5% | 104.6% | 3 (2×) and 2 (2×) | 
CCOc1cc(/C=C/c2ccc(OC(=O)OCCNC(=O)CN)cc2)cc(OCC)c1.Cl [Compound 6b, (E)-2-(2-aminoacetamido)ethyl (4-(3,5-diethoxystyryl)phenyl) carbonate hydrochloride] | prevented MCD diet-induced steatohepatitis | 7.00 |  | 2 | 0 | 3 (2×) and 2 (2×) | 28 | 8 (2×) and 6 (2×) |  | 454.38 U/L | 408.75 U/L | 100.0% | 130.5% | 103.9% | 111.7% | 97.9% | 99.2% | 3 (2×) and 2 (2×) | 
